For 80 molecules, RP-LC retention time results are on record in the METLIN SMRT retention time set (Domingo-Almenara et al. 2019).

SMILES strings stand for the structures.

A short description of this data set: gradient 5% acetonitrile 3 min, to 50% in 2 min, to 85% in 15 min, held 3 min, 100 µL/min. To be noted: column: Zorbax Extend-C18 2.1 x 50 mm; eluents: water / acetonitrile, 0.1% formic acid. The method in brief: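 Retention times come from adduct peaks that were picked computationally and then checked by hand. The standards, pure and pooled in mixtures of ~100 molecules, were run on a Zorbax Extend-C18 column (2.1 × 50 mm, 1.8 μm) at 100 μL/min with water and acetonitrile, each with 0.1% formic acid. Detection was by quadrupole time-of-flight mass spectrometry in positive and negative ionization mode, with a dead volume of 40 μL and a dwell volume of 900 μL.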
As for `Cc1nnc(-c2ccc3ccn(CC(=O)Nc4cccc(Cl)c4)c3c2)o1`, the RP-LC retention time was determined as 847 s.

As for `O=C1C2N=NN(c3ccc(F)cc3)C2C(=O)N1c1ccccc1` (stereo not given), the RP-LC retention time turned out to be 914 s.

For the molecule `Cc1ccn2cc(-c3ccc(NS(=O)(=O)c4cc(C)c(C)cc4C)cc3)nc2n1`, the RP-LC retention time turned out to be 712 s.

As for `COc1cc(NC(=O)C2CCCN(c3cnc4nccnc4c3)C2)cc(OC)c1` (stereo not given), the RP-LC retention time worked out at 712 s.

In the case of `Cc1cc(C)c(Nc2ccnc(Nc3ccc(C#N)cc3)n2)c(C)c1`, the RP-LC retention time stood at 798 s.

For `Cc1cc(C)c(S(=O)(=O)N(Cc2ccsc2)Cc2ccccn2)c(C)c1`, the RP-LC retention time came to 1030 s.

In turn, `COc1ccc(NC(=O)CN2CCc3[nH]c4c(C)cc(F)cc4c(=O)c3C2)c(OC)c1` yielded an RP-LC retention time of 631 s.

Molecule `O=c1c(NCc2ccc(Cl)cc2)nccn1-c1ccc2c(c1)OCO2` came in with an RP-LC retention time of 923 s.

For the molecule `CC(C)NC(=O)c1cc(N2CCCC2)n2nccc2n1`, the RP-LC retention time is 784 s.

For `Cc1ccc(-c2nc3cnccn3c2NCCC(=O)NCC2CC2)cc1`, the RP-LC retention time came out at 636 s.

`COc1cc(NC(=O)Nc2nccn(-c3ccccc3)c2=O)cc(OC)c1`: the RP-LC retention time is 886 s.

For the molecule `COc1ccc(-c2cc3nc(C)cc(N4CCN(c5ccccn5)CC4)n3n2)cc1OC`, the RP-LC retention time amounted to 583 s.

Consider `O=C(NCc1ccccc1C(F)(F)F)C1=C2CCCN2c2ccccc2S1(=O)=O`, for which the RP-LC retention time came to 916 s.

Consider `O=C(CN1CCN(Cc2ccccc2F)C1=O)NCc1cccc(Cl)c1`, for which the RP-LC retention time worked out at 831 s.

`O=C1CCCN1CCCN1C(=O)[C@H]2CN(Cc3cccc(Cl)c3)C[C@H]2C1=O` came in with an RP-LC retention time of 628 s.

The molecule `COc1ccc(Cl)cc1N1C=C(C#N)S(=O)(=O)c2ccc(F)cc21` had an RP-LC retention time of 968 s.

`CC(C)(C)c1csc(NC(=O)c2ccc3c(c2)OCCO3)n1` registered an RP-LC retention time of 976 s.

In turn, `CCc1nc(-n2cccc2)sc1C(=O)Nc1ccccc1F` had an RP-LC retention time of 1100 s.

`COc1ccccc1N1CCN(Cc2nc(-c3ccc(N4CCOCC4)nc3)no2)CC1` displayed an RP-LC retention time of 694 s.

For the molecule `CCN1CCN(C(=O)C2CCCN(c3nccc(C)n3)C2)CC1` (stereo not given), the RP-LC retention time is 559 s.

Molecule `O=C(NCC1CCN(C(=O)c2cc3ccccc3o2)CC1)c1cc(-c2ccccc2)on1` came in with an RP-LC retention time of 903 s.

Molecule `Oc1ccc(Br)cc1-c1nc2ncccn2c1Nc1cccc(C(F)(F)F)c1` displayed an RP-LC retention time of 1080 s.

With `COc1cccc2sc(N3CCN(C(=O)C4CCN(S(C)(=O)=O)CC4)CC3)nc12`, the RP-LC retention time stood at 697 s.

As to `Cc1cnc(C(=O)N2C[C@@H](Oc3cccnc3)C[C@H]2C(=O)NC2CC2)cn1`, the RP-LC retention time was 554 s.

`O=C(CSc1ccc(-c2ccccn2)nn1)Nc1ccc(F)c(F)c1` returned an RP-LC retention time of 789 s.

On to `CCN1CCN(c2nc(F)c(F)c(S(=O)(=O)CCN3C(=O)CCC3=O)c2F)CC1`, for which the RP-LC retention time worked out at 582 s.

Consider `COCCCNC(=O)Cc1c(C)n(C)c2nc(-c3ccccc3)nn2c1=O`, for which the RP-LC retention time was determined as 618 s.

In turn, `O=C(NC1CCCC1)N1CCc2nc(-c3ccccc3)ncc2C1` returned an RP-LC retention time of 822 s.

Consider `CCn1cc2c(n1)c(=O)n(Cc1ccc(F)cc1)c(=O)n2CC(=O)Nc1cc(F)ccc1F`, for which the RP-LC retention time stood at 905 s.

For `O=C(NCCc1ccc(Cl)cc1)C1CCCN(c2ncnc3c2oc2ccccc23)C1` (stereo not given), the RP-LC retention time stood at 855 s.

`O=C(CSc1nnc(Cc2ccccc2)o1)Nc1nc(-c2ccccc2)cs1` yielded an RP-LC retention time of 936 s.

For the molecule `COCCc1noc(-c2ccc(=O)n(CC(=O)Nc3cc(F)ccc3F)c2)n1`, the RP-LC retention time was determined as 728 s.

The molecule `Cc1nnc(-c2c(S(=O)(=O)N3CCC(Cc4ccccc4)CC3)c(C)n(C)c2C)o1` showed an RP-LC retention time of 931 s.

Consider `CCC(=O)N1CCC2(CC1)c1nccn1-c1ccccc1CN2CC(C)C`, for which the RP-LC retention time was determined as 632 s.

For the molecule `O=S(=O)(c1cccc(Cl)c1)N1CCN(c2cnn3cnnc3c2)CC1`, the RP-LC retention time was 703 s.

`O=C(c1cccc(F)c1)N1CCN(S(=O)(=O)c2cc3c4c(c2)CCC(=O)N4CCC3)CC1` showed an RP-LC retention time of 784 s.

As for `COc1ccc(CNC(=O)c2nnc(-c3ccc(S(=O)(=O)N(C)C)cc3)o2)c(OC)c1`, the RP-LC retention time came to 865 s.

Regarding `C=CCNC(=O)c1cc2n(n1)CCCC2`, the RP-LC retention time came to 646 s.

The molecule `CCS(=O)(=O)N1CCC(c2noc(COCCOC)n2)CC1` displayed an RP-LC retention time of 681 s.

`COc1cccc(N2C=C(C(=O)N3CCCC3)S(=O)(=O)c3ccc(Cl)cc32)c1` gave an RP-LC retention time of 853 s.

`Cc1scc2nc(C(=O)NC3CCCCC3)nc(N(C)C)c12`: the RP-LC retention time turned out to be 652 s.

As for `O=C(NCc1ccc(Cl)cc1)c1ccc(NC(=O)C2CCC2)cc1N1CCOCC1`, the RP-LC retention time was 896 s.

In the case of `CCC(=O)N1CCN(c2ccc(-n3c(=O)ccc4cnc5ccc(-c6cnc7ccccc7c6)cc5c43)cc2C(F)(F)F)CC1`, the RP-LC retention time amounted to 861 s.

On to `CCOc1ccc(NC(=O)N2CCC(c3nc(C(=O)N4CCOCC4)c(C)o3)CC2)cc1`, for which the RP-LC retention time turned out to be 704 s.

Molecule `Cc1ccc(CNC(=O)CC2CCOC3(CCN(S(C)(=O)=O)CC3)C2)o1` (stereo not given) returned an RP-LC retention time of 705 s.

Regarding `COc1cccc(CNC(=O)C2CCCN2S(=O)(=O)c2cc3c(cc2Cl)NC(=O)CO3)c1` (stereo not given), the RP-LC retention time was 880 s.

`O=c1c2cc(-c3ccc(F)cc3)nn2cnn1Cc1nc(-c2ccc(Br)cc2)no1` returned an RP-LC retention time of 1210 s.

`CCOC(=O)CNC(=O)N1CCCC1c1ccccc1Cl` (stereo not given) gave an RP-LC retention time of 804 s.

`CC(C)c1cc(-c2nnc3sc(COc4ccc(Cl)cc4)nn23)n[nH]1` displayed an RP-LC retention time of 900 s.

Regarding `Cn1cc(C2=C(c3ccc(Cl)cc3Cl)C(=O)NC2=O)c2ccccc21`, the RP-LC retention time amounted to 1110 s.

Molecule `Cc1cc(F)ccc1NC(=O)c1cc(C2CC2)on1` came in with an RP-LC retention time of 936 s.

In turn, `CCc1ccc(N2CC(c3noc(-c4ccco4)n3)CC2=O)cc1` (stereo not given) yielded an RP-LC retention time of 921 s.

The molecule `CCc1ccc(Nc2nc(C(=O)NCc3ccco3)nc3ccccc23)cc1` gave an RP-LC retention time of 808 s.

Molecule `COc1ccc(-c2c(C(=O)Nc3ccc(OC)cc3OC)nc3ccccn23)cc1` registered an RP-LC retention time of 650 s.

Take `CCCN(Cc1ccccc1)Cc1cc(=O)n2cc(Cl)ccc2n1`: the RP-LC retention time is 649 s.

Take `Cc1nc(-c2noc(-c3ccc(F)cc3)n2)cn1CC(=O)NCc1cccs1`: the RP-LC retention time was 814 s.

With `COc1cc(-c2ccc(SCC(=O)c3ccc(C)cc3)nn2)cc(OC)c1OC`, the RP-LC retention time was found to be 949 s.

In turn, `Cc1nc(-c2noc(-c3cccnc3)n2)cn1CC(=O)NC1CCCCC1` registered an RP-LC retention time of 668 s.

The molecule `Cc1nc2c(NS(=O)(=O)c3ccc(F)c(C)c3)cccn2n1` came in with an RP-LC retention time of 784 s.

As for `O=C(NCCc1ccncc1)C1CN(C(=O)COc2ccccc2F)C1`, the RP-LC retention time was 544 s.

Regarding `CCC(=O)N1CCN(c2nc3c(s2)CC(C(=O)Nc2ccc(C)cc2Cl)CC3)CC1` (stereo not given), the RP-LC retention time was determined as 607 s.

As for `CCn1c(C(=O)Nc2ccc(C)c(C)c2)cc2sc(Cl)cc21`, the RP-LC retention time stood at 1300 s.

As to `O=C(CN1CCCCC1c1nc(-c2ccc(F)cc2)no1)NCc1ccc(F)cc1` (stereo not given), the RP-LC retention time came to 1080 s.

`N#Cc1ccsc1NC(=O)c1cccc(Oc2ccccc2)c1` yielded an RP-LC retention time of 988 s.

Molecule `COc1cccc(C(=O)NC2CCN(c3cc(C)cc(C)c3)C2=O)c1` (stereo not given) displayed an RP-LC retention time of 876 s.

Regarding `Cc1ccc(-c2nc(NC(=O)/C=C/c3ccc(Cl)cc3)sc2C)cc1`, the RP-LC retention time is 1300 s.

In turn, `CCc1noc(NC(C)=O)c1-c1ccc(OC)c(S(=O)(=O)N2CCc3ccccc32)c1` had an RP-LC retention time of 860 s.

With `OCCNc1nc(NCCc2cccs2)nc2c1cnn2-c1ccc(F)cc1`, the RP-LC retention time amounted to 698 s.

For the molecule `O=C(NCC(c1cccs1)N1CCc2ccccc21)c1ccco1` (stereo not given), the RP-LC retention time turned out to be 894 s.

`CCn1ccc2sc(C)c(C(=O)NCc3ccc(SC)cc3)c2c1=O` yielded an RP-LC retention time of 866 s.

Molecule `Cc1ccc(S(=O)(=O)N2CCN(S(=O)(=O)N3CCCCC3)CC2)cc1` had an RP-LC retention time of 922 s.

Molecule `Cn1nccc1-c1cccc(-c2noc(-c3cccc(Cl)c3)n2)c1` displayed an RP-LC retention time of 1260 s.

As for `Cn1cc(-c2cc3n(n2)CCC(=O)N3CCCC(=O)NCc2cccnc2)c2ccccc21`, the RP-LC retention time came out at 616 s.

The molecule `Cc1oc2ccn(Cc3ccccc3F)c(=O)c2c1C(=O)NCc1ccc(F)cc1` registered an RP-LC retention time of 1090 s.

`CC(C)Cn1c(=O)c(N2CCN(S(=O)(=O)Cc3ccccc3)CC2)nc2ccncc21` displayed an RP-LC retention time of 740 s.

Molecule `O=C(Nc1ccc2c(c1)CCCN2C(=O)C1CC1)c1nc2ccccc2s1` returned an RP-LC retention time of 968 s.

Molecule `Cc1ccc(-c2nc3cnccn3c2Nc2ccc(F)cc2)cc1` registered an RP-LC retention time of 904 s.

In turn, `Cc1ccc2c(c1)C(O)(CC(=O)c1cccc(Cl)c1)C(=O)N2` (stereo not given) registered an RP-LC retention time of 785 s.

In turn, `COc1nccnc1NC1CCN(C(=O)Cc2ccsc2)CC1` showed an RP-LC retention time of 921 s.

Molecule `Cc1noc(-c2cccc(OC3CN(C(=O)Cc4ccsc4)C3)c2)n1` gave an RP-LC retention time of 857 s.
